Source: PubChem BioAssay (NCI)
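Following 48 hours of exposure in 96-well plates, responses at five concentrations were used to interpolate endpoints linearly. TGI: total growth inhibition.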

Tests used:
Test in all cases: NCI-60 cell line screen, 48 h
[1] = system: SR leukemia
[2] = system: UACC-62 melanoma
[3] = system: CCRF-CEM leukemia
[4] = system: UO-31 renal
[5] = system: SNB-75 CNS
[6] = system: SF-295 CNS
[7] = system: HCT-116 colon
[8] = system: NCI-H522 lung
[9] = system: CAKI-1 renal
[10] = system: SK-MEL-2 melanoma
[11] = system: PC-3 prostate
[12] = system: HT29 colon
[13] = system: KM12 colon
[14] = system: U251 CNS
[15] = system: COLO 205 colon
[16] = system: MDA-MB-231 breast
[17] = system: MDA-MB-435
[18] = system: NCI-H226 lung
[19] = system: SK-OV-3 ovarian
[20] = system: A549 NSCLC
[21] = system: 786-0 renal
[22] = system: IGROV1 ovarian
[23] = system: OVCAR-4 ovarian
[24] = system: HOP-62 NSCLC
[25] = system: MCF7 breast
[26] = system: HS 578T breast
[27] = system: ACHN renal
[28] = system: HCT-15 colon
[29] = system: M14 melanoma
[30] = system: EKVX NSCLC
[31] = system: HCC-2998 colon
[32] = system: MDA-N
[33] = system: LOX IMVI melanoma
[34] = system: DU-145 prostate
[35] = system: SW-620 colon
[36] = system: SK-MEL-5 melanoma
[37] = system: OVCAR-8 ovarian
[38] = system: NCI-H460 lung
[39] = system: BT-549 breast
[40] = system: SF-268 CNS
[41] = system: T-47D breast
[42] = system: OVCAR-3 ovarian
[43] = system: SN12C renal
[44] = system: SK-MEL-28 melanoma
[45] = system: MALME-3M melanoma
[46] = system: UACC-257 melanoma
[47] = system: A498 renal
[48] = system: K-562 leukemia
[49] = system: RPMI-8226 leukemia
[50] = system: SNB-19 CNS
[51] = system: NCI/ADR-RES ovarian
[52] = system: HOP-92 NSCLC
[53] = system: OVCAR-5 ovarian
[54] = system: RXF 393 renal
[55] = system: NCI-H23 lung
[56] = system: MOLT-4 leukemia
[57] = system: TK-10 renal
[58] = system: HL-60(TB) leukemia
[59] = system: SF-539 CNS

Which TGI [1] does the source give for `O=c1c2c3c(sc2nc2n1N=CN(c1ccc(F)cc1)C2)CCCC3` here?
Its TGI is over 100 µM.

And the TGI [2]?
The TGI was over 100 µM.

What about the TGI [3] of the same molecule?
Its TGI is over 100 µM.

And the TGI [4]?
Its TGI is over 100 µM.

And the TGI [5]?
The TGI was over 100 µM.

What about the TGI [6] of the same molecule?
Its TGI is over 100 µM.

And the TGI [7]?
The TGI was over 100 µM.

And the TGI [8]?
Its TGI is over 100 µM.

And the TGI [9]?
Its TGI is over 100 µM.

And the TGI [10]?
Its TGI is over 100 µM.

And the TGI [11]?
The TGI was over 100 µM.

And the TGI [12]?
The TGI was over 100 µM.

And the TGI [13]?
The TGI was over 100 µM.

What about the TGI [14] of the same molecule?
Its TGI is over 100 µM.

And the TGI [15]?
The TGI was over 100 µM.

What about the TGI [16] of the same molecule?
Its TGI is over 100 µM.

What about the TGI [17] of the same molecule?
The TGI was over 100 µM.

What about the TGI [18] of the same molecule?
Its TGI is over 100 µM.

And the TGI [19]?
Its TGI is over 100 µM.

And the TGI [20]?
Its TGI is over 100 µM.

What about the TGI [21] of the same molecule?
The TGI was over 100 µM.

And the TGI [22]?
Its TGI is over 100 µM.

And the TGI [23]?
Its TGI is over 100 µM.

What about the TGI [24] of the same molecule?
The TGI was over 100 µM.

And the TGI [25]?
Its TGI is over 100 µM.

What about the TGI [26] of the same molecule?
The TGI was over 100 µM.

And the TGI [27]?
Its TGI is over 100 µM.

And the TGI [28]?
The TGI was over 100 µM.

What about the TGI [29] of the same molecule?
The TGI was over 100 µM.

And the TGI [30]?
Its TGI is over 100 µM.

What about the TGI [31] of the same molecule?
The TGI was over 100 µM.

And the TGI [32]?
The TGI was over 100 µM.

What about the TGI [33] of the same molecule?
The TGI was over 100 µM.

And the TGI [34]?
The TGI was over 100 µM.

What about the TGI [35] of the same molecule?
Its TGI is over 100 µM.

And the TGI [36]?
Its TGI is over 100 µM.

And the TGI [37]?
The TGI was over 100 µM.

And the TGI [38]?
The TGI was over 100 µM.

And the TGI [39]?
The TGI was over 100 µM.

And the TGI [40]?
Its TGI is over 100 µM.

What about the TGI [41] of the same molecule?
The TGI was over 100 µM.

And the TGI [42]?
Its TGI is over 100 µM.

And the TGI [43]?
Its TGI is over 100 µM.

What about the TGI [44] of the same molecule?
Its TGI is over 100 µM.

What about the TGI [45] of the same molecule?
The TGI was over 100 µM.

And the TGI [46]?
Its TGI is over 100 µM.

And the TGI [47]?
Its TGI is over 100 µM.

What about the TGI [48] of the same molecule?
Its TGI is over 100 µM.

And the TGI [49]?
Its TGI is over 100 µM.

What about the TGI [50] of the same molecule?
Its TGI is over 100 µM.

What about the TGI [51] of the same molecule?
Its TGI is over 100 µM.

What about the TGI [52] of the same molecule?
The TGI was over 100 µM.

And the TGI [53]?
The TGI was over 100 µM.

And the TGI [54]?
The TGI was over 100 µM.

What about the TGI [55] of the same molecule?
The TGI was over 100 µM.

And the TGI [56]?
Its TGI is over 100 µM.

And the TGI [57]?
The TGI was over 100 µM.

`CC(C)=C[C@@H]1O[C@H](O)[C@@H]([C@H]2CC[C@@]3(C)[C@@H]4CC[C@H]5C(C)(C)C(=O)CC[C@@]56C[C@@]46CC[C@]23C)[C@@H]1O` was tested. Which TGI [1] did it give?
Its TGI is 25.8 µM.

What about the TGI [2] of the same molecule?
Its TGI is 35.5 µM.

What about the TGI [3] of the same molecule?
The TGI was 24.1 µM.

And the TGI [4]?
The TGI was 28.6 µM.

And the TGI [5]?
Its TGI is 32.5 µM.

What about the TGI [6] of the same molecule?
Its TGI is 31.9 µM.

What about the TGI [7] of the same molecule?
The TGI was 28.5 µM.

What about the TGI [8] of the same molecule?
Its TGI is 30.3 µM.

What about the TGI [9] of the same molecule?
Its TGI is 31 µM.

What about the TGI [10] of the same molecule?
Its TGI is 42.2 µM.

And the TGI [11]?
Its TGI is 29.3 µM.

And the TGI [12]?
Its TGI is 24.1 µM.

What about the TGI [13] of the same molecule?
The TGI was 34.9 µM.

What about the TGI [14] of the same molecule?
Its TGI is 34.8 µM.

And the TGI [15]?
Its TGI is 43.3 µM.

And the TGI [16]?
Its TGI is 37.1 µM.

And the TGI [17]?
Its TGI is 41.7 µM.

And the TGI [18]?
The TGI was 24.6 µM.

And the TGI [19]?
The TGI was 34.6 µM.

What about the TGI [20] of the same molecule?
The TGI was 28.7 µM.

And the TGI [21]?
Its TGI is 27.6 µM.

What about the TGI [22] of the same molecule?
The TGI was 35.4 µM.

What about the TGI [23] of the same molecule?
The TGI was 35 µM.

What about the TGI [24] of the same molecule?
Its TGI is 62.2 µM.

What about the TGI [25] of the same molecule?
The TGI was 25 µM.

And the TGI [26]?
Its TGI is 48.4 µM.

What about the TGI [27] of the same molecule?
Its TGI is 32 µM.

And the TGI [28]?
Its TGI is 36.1 µM.

What about the TGI [29] of the same molecule?
The TGI was 57.3 µM.

And the TGI [30]?
The TGI was 33 µM.

What about the TGI [31] of the same molecule?
Its TGI is 33.3 µM.

And the TGI [32]?
The TGI was 31.3 µM.

And the TGI [34]?
The TGI was 29.6 µM.

What about the TGI [58] of the same molecule?
The TGI was 30.2 µM.

And the TGI [35]?
Its TGI is 29.7 µM.

And the TGI [36]?
Its TGI is 41.8 µM.

And the TGI [37]?
Its TGI is 30.4 µM.

What about the TGI [38] of the same molecule?
The TGI was 35.9 µM.

What about the TGI [39] of the same molecule?
Its TGI is 39.8 µM.

And the TGI [40]?
The TGI was 39.4 µM.

And the TGI [41]?
The TGI was 35.5 µM.

What about the TGI [42] of the same molecule?
Its TGI is 27.3 µM.

And the TGI [43]?
Its TGI is 38.2 µM.

What about the TGI [44] of the same molecule?
The TGI was 42.5 µM.

What about the TGI [45] of the same molecule?
Its TGI is 37.7 µM.

And the TGI [46]?
Its TGI is 31.6 µM.

What about the TGI [47] of the same molecule?
The TGI was 32.8 µM.

What about the TGI [48] of the same molecule?
Its TGI is 38.4 µM.

What about the TGI [49] of the same molecule?
The TGI was 12.7 µM.

And the TGI [59]?
Its TGI is 28 µM.

What about the TGI [50] of the same molecule?
Its TGI is 39.1 µM.

And the TGI [51]?
The TGI was 35.6 µM.

What about the TGI [52] of the same molecule?
The TGI was 32 µM.

And the TGI [53]?
The TGI was 57.8 µM.

What about the TGI [54] of the same molecule?
Its TGI is 27.8 µM.

What about the TGI [55] of the same molecule?
Its TGI is 32.9 µM.

What about the TGI [56] of the same molecule?
Its TGI is 32.4 µM.

And the TGI [57]?
The TGI was 30.1 µM.
